Tests used:
[1] = biological target: T1, HMG-CoA reductase (Sus scrofa, UniProt Q1W675); experiment: Hepatic HMG-CoA reductase activity in hypercholesterolemic swine; assay type: in vivo; conditions: control diet + 50 ppm
T1 construct: The hepatic enzymatic activity of the HMG-CoA reductase decreased approximately 30%; from tissue; host or cells: pig liver, microsomes
T1 sequence (Q1W675 1-885): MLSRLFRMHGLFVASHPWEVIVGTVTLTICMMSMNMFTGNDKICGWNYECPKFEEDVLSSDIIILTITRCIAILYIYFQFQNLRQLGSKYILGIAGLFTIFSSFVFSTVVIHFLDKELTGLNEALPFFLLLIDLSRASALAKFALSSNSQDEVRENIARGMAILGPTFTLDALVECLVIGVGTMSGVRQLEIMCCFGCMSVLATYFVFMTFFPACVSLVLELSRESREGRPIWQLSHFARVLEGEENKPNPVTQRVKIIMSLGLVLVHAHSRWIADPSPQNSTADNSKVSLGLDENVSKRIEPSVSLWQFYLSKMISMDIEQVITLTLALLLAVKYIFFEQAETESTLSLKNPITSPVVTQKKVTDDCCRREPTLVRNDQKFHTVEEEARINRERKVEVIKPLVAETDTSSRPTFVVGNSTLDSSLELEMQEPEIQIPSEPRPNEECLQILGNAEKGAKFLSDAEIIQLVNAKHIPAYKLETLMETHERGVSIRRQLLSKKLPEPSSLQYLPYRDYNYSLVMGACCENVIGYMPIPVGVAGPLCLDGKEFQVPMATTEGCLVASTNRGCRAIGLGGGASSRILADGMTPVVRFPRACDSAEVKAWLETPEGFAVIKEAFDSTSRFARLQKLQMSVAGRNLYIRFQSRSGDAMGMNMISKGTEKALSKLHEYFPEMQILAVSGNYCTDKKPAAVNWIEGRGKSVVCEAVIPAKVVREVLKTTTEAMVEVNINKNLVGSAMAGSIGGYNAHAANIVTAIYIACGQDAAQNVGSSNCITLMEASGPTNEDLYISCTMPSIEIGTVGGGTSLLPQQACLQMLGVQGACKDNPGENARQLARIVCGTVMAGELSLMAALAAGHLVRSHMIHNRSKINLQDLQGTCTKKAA
Text: All assays conducted on chicken or swine serum were done following the protocols described in A. A. Qureshi et al., "Lowering Of Serum Cholesterol In Hypercholesterolemic Humans By Tocotrienols" (Palmvitee), Am. J. Clin. Nutr., 53, pp. 1021S-26S (1991). All enzymatic assays were done following the protocols described in A. A. Qureshi et al., "Effects of Cereals and Culture Filtrate of Trichoderma viride on Lipid Metabolism of Swine", Lipids, 17, pp. 924 (1982). Plasma insulin, glucagon and TNF levels were measured using radioinnumoassay kits from Ventrex Laboratories, Inc. (Portland, Me.), ICN Biomedicals, Inc. (Costa Mesa, Calif.) and Genzyme Corp. (Cambridge, Mass.), respectively.
We next measured the effects of various tocotrienols from rice bran on HMG-CoA reductase and cholesterol 7α-hydroxylase in hypercholesterolemic swine. Since pigs are very similar to humans in their cholesterol metabolism, they provide a useful model from which to study hypercholesterolemia and related diseases. […] The serum cholesterol concentration in these swine is typically above 300-500 mg/dl, as compared to 120-160 mg/dl in normal adult swine. As a result, the pigs develop complicated atherosclerotic plaques that closely resemble advanced atherosclerotic lesions found in humans.
(§1) Each group of three 5-month old swine was administered either a control diet or a control diet supplemented with 50 ppm of TRF or 50 ppm of an individual tocotrienol. The samples were prepared as described in Example 11. After a 12 hour fast, serum and plasma samples were taken a 0 hrs, 21 days and 42 days from the start of the feeding period. After taking serum and plasma samples from the pigs at the end of the 42 day period, all of the swine were fasted for a total of 40 hours, followed by a 48 hour refeeding period. One swine from each group was sacrificed at that time and the liver, intestine, lung, heart, loin muscle, adipose tissue and ham muscle were removed.

[2] = system: hypercholesterolemic swine; experiment: Serum cholesterol, apolipoproteins, triglycerides, glucose, insulin and glucagon in hypercholesterolemic swine; assay type: in vivo
Method: All assays conducted on chicken or swine serum were done following the protocols described in A. A. Qureshi et al., "Lowering Of Serum Cholesterol In Hypercholesterolemic Humans By Tocotrienols" (Palmvitee), Am. […] Plasma insulin, glucagon and TNF levels were measured using radioinnumoassay kits from Ventrex Laboratories, Inc. (Portland, Me.), ICN Biomedicals, Inc. (Costa Mesa, Calif.) and Genzyme Corp. (Cambridge, Mass.), respectively.
We next measured the effects of various tocotrienols from rice bran on HMG-CoA reductase and cholesterol 7α-hydroxylase in hypercholesterolemic swine. Since pigs are very similar to humans in their cholesterol metabolism, they provide a useful model from which to study hypercholesterolemia and related diseases. […] As a result, the pigs develop complicated atherosclerotic plaques that closely resemble advanced atherosclerotic lesions found in humans.
as §1, with “The samples were prepared as described in Example 11.” left out
The experimental conditions were the same, except that the two remaining swine in each group were transferred to the unsupplemented control diet following the 42 day feeding period. After an additional 70 days, serum and plasma samples were collected from these swine after a 12 hour fast for testing.

[3] = 70 days on control diet after 42 days at 50 ppm

`CC(C)=CCC/C(C)=C/CC/C(C)=C/CCC1(C)CCc2cc(O)c(C)c(C)c2O1` (stereo not drawn) [γ-T3, γ-tocotrienol, reference compound] was tested, and the “HMG-CoA REDUCTASE” value ([1]; 21 days) was 300.72 pg/min/mg of microsomes, the “HMG-CoA REDUCTASE, percentage of 0-time value” ([1]; 21 days) was 86.19% and the “HMG-CoA REDUCTASE” value ([1]; 42 days) was 280.88 pg/min/mg of microsomes. For the same compound, the “HMG-CoA REDUCTASE, Percentage of Control Activity” value ([1]; 42 days) was 73.31%, the “HMG-CoA REDUCTASE, percentage of 0-time value” ([1]; 42 days) was 80.71% and the “HDL-CHOLESTEROL CONCENTRATION IN SERUM” value [2, 3] was 30.47 mg/100 ml. The “HDL-CHOLESTEROL, Percentage of Control Activity” value [2, 3] was 106.66%, the “HDL-CHOLESTEROL, percentage of baseline value” [2, 3] was 139.39% and the “HDL:LDL CHOLESTEROL, Percentage of Control Activity” value [2, 3] was 84.52%. For the same compound, the “LDL-CHOLESTEROL CONCENTRATION IN SERUM” value [2, 3] was 224.66 mg/100 ml, the “LDL-CHOLESTEROL, Percentage of Control Activity” value [2, 3] was 88.61% and the “LDL-CHOLESTEROL, percentage of baseline value” [2, 3] was 125.95%. For the same compound, the “TOTAL CHOLESTEROL CONCENTRATION IN SERUM” value [2, 3] was 271.70 mg/100 ml, the “TOTAL CHOLESTEROL, Percentage of Control Activity” value [2, 3] was 78.80% and the “TOTAL CHOLESTEROL, percentage of baseline value” [2, 3] was 129.66%. The “Apo A1, percentage of control” value ([2]; control diet + 50 ppm, 6 weeks) was 102.06%, the “Apo A1 concentration in serum” value ([2]; control diet + 50 ppm, 6 weeks) was 26.22 ± 1.11 mg/100 ml and the “Apo B concentration in serum” value ([2]; control diet + 50 ppm, 6 weeks) was 114.29 ± 1.79 mg/100 ml. The “Apo B, percentage of control” value ([2]; control diet + 50 ppm, 6 weeks) was 77.34%, the “Triglycerides concentration in serum” value ([2]; control diet + 50 ppm, 6 weeks) was 61.78 mg/100 ml and the “Triglycerides, percentage of control” value ([2]; control diet + 50 ppm, 6 weeks) was 80.69%. For the same compound, the “HDL-CHOLESTEROL CONCENTRATION IN SERUM” value ([2]; control diet + 50 ppm, 21 days) was 25.27 mg/100 ml, the “HDL-CHOLESTEROL, percentage of baseline value” ([2]; control diet + 50 ppm, 21 days) was 115.59% and the “HDL:LDL CHOLESTEROL, percentage of baseline value” ([2]; control diet + 50 ppm, 21 days) was 89.83%. The “LDL-CHOLESTEROL CONCENTRATION IN SERUM” value ([2]; control diet + 50 ppm, 21 days) was 185.12 mg/100 ml, the “LDL-CHOLESTEROL, percentage of baseline value” ([2]; control diet + 50 ppm, 21 days) was 103.78% and the “TOTAL CHOLESTEROL CONCENTRATION IN SERUM” value ([2]; control diet + 50 ppm, 21 days) was 225.20 mg/100 ml. For the same compound, the “TOTAL CHOLESTEROL, percentage of baseline value” ([2]; control diet + 50 ppm, 21 days) was 107.39%, the Glucagon ([2]; control diet + 50 ppm, 42 days) was 285.41 pg/mL and the “Glucagon, percentage of control” value ([2]; control diet + 50 ppm, 42 days) was 86.38%. The Glucose ([2]; control diet + 50 ppm, 42 days) was 74.40 mg/100 ml, the “Glucose, percentage of control” value ([2]; control diet + 50 ppm, 42 days) was 77.51% and the “HDL-CHOLESTEROL CONCENTRATION IN SERUM” value ([2]; control diet + 50 ppm, 42 days) was 28.55 mg/100 ml. The “HDL-CHOLESTEROL, Percentage of Control Activity” value ([2]; control diet + 50 ppm, 42 days) was 111.06%, the “HDL-CHOLESTEROL, percentage of baseline value” ([2]; control diet + 50 ppm, 42 days) was 130.60% and the “HDL:LDL CHOLESTEROL, Percentage of Control Activity” value ([2]; control diet + 50 ppm, 42 days) was 60.58%. The “HDL:LDL CHOLESTEROL, percentage of baseline value” ([2]; control diet + 50 ppm, 42 days) was 82.84%, the Insulin ([2]; control diet + 50 ppm, 42 days) was 21.2 µU/mL and the “Insulin, percentage of control” value ([2]; control diet + 50 ppm, 42 days) was 103.46%. For the same compound, the “LDL-CHOLESTEROL CONCENTRATION IN SERUM” value ([2]; control diet + 50 ppm, 42 days) was 193.80 mg/100 ml, the “LDL-CHOLESTEROL, Percentage of Control Activity” value ([2]; control diet + 50 ppm, 42 days) was 66.22% and the “LDL-CHOLESTEROL, percentage of baseline value” ([2]; control diet + 50 ppm, 42 days) was 108.65%. The “TOTAL CHOLESTEROL CONCENTRATION IN SERUM” value ([2]; control diet + 50 ppm, 42 days) was 233.93 mg/100 ml, the “TOTAL CHOLESTEROL, Percentage of Control Activity” value ([2]; control diet + 50 ppm, 42 days) was 71.00% and the “TOTAL CHOLESTEROL, percentage of baseline value” ([2]; control diet + 50 ppm, 42 days) was 111.76%.

Reference: US6239171A, “Tocotrienols and tocotrienol-like compounds and methods for their use” (Lipogenics, Inc., priority 1998, dated 2001)
